Source: patent publication US20070141086A1 (priority 2003, published 2007)

Test system: virulent culture of M. haemolytica (Oklahoma State strain)
Format: in vivo, beef calves
Settings: conclusion over vaccination and challenge study in calves
Experimental: For the vaccination challenge, 5 ml of a virulent culture of M. haemolytica (Oklahoma State strain) was administered by transthoracic injection into the right and left caudal lung lobes of each calf (10 ml of culture per calf) on Day 34 of the study. The inoculum contained approximately 5.6×10^8 CFU/ml.
One animal in T01 died immediately following challenge due to pulmonary hemorrhage as a result of challenge administration; thus its lung lesion data was excluded from the analysis. One animal in T03 was found dead on Day 37 as a result of severe pneumonia but was necropsied and its lung data was analyzed along with the data from the other animals. There were no significant differences between the treatment groups (P>0.05).

Tulathromycin
Overall adjuvant function / immune response indicators (antibody production, attitude, respiratory effort, lung lesions): appeared to effectively replace the adjuvant
